Laboratory results taken from patent US20220220450A1, “FABRICATION OF A BIOMIMETIC PLATFORM SYSTEM AND METHODS OF USE” (Cornell University Center for Technology Licensing, priority 2017, published 2022).

Tests used:
MDA-MB231 cancer cells [1] = assay: Doxorubicin response and uptake in 3D-breast component biomimetic platform system with cancer cells
From the text: Lentivirus transfected human cell lines were selected for use in the biomimetic platform systems disclosed herein. Color selection was randomly assigned to ensure proper differentiation between cell types under fluorescent and confocal microscopy. […] Cancer cell lines, MDA-MB231, MDA-MB468, and HS-578T were transfected with mCherry lentivirus.
Surgical specimens were obtained. In a sterile biosafety hood, breast specimens were homogeneously minced. Excess lipid was carefully removed from tissue by suction, and minced tissue was mixed on a 1:1 ratio with complete Ham's media containing 1 mg/mL of collagenase Type I and 0.01 mg/mL hyaluronidase (for adipocytes and Adipose derived stem cell (ASC)-containing stromal vascular fraction (SVF) isolation) or 1 mg/mL of collagenase type IA and 0.01 mg/mL hyaluronidase (for isolation of breast organoids).
The total amount of 1×M199 media needed for collagen dilution during the neutralization process was reduced by 2504, to allow for the volume needed for reconstitution of cellular components that were added to neutralize collagen. The Collagen platform without breast components was fully diluted by adding 250 microliters of media with desired number of vascular cells (e.g., pericytes), while the biomimetic platform with breast components was diluted by adding 250 μL of MEGM media containing extracted organoids, SVF containing ASCs, and cancer cells. Components were mixed homogeneously into the neutralized collagen, and mature adipocytes were added to the biomimetic platform containing breast stroma at 15% v/v (v/v refers to the volume of the adipocytes+SVF over the total volume of the biocompatible substrate present in the biomimetic platform system described herein).
Biomimetic constructs were fixed in formaldehyde for 30 minutes followed by 3 consecutive 5-minute Phosphate Buffered Saline (PBS) washes. […] Images were analyzed by confocal microscopy. […]
Confocal images for doxorubicin response were analyzed using Imaris™ for visualization of 3D image volume. […]

HS578T cancer cells = assay: Doxorubicin response in 3D-breast component versus 3D-collagen only biomimetic platform system; format: cell-based, human; conditions: doxorubicin 0-10 μM, FIG. 21A-21D
MDA-MB231 cancer cells [2] = assay: Doxorubicin response of cancer cells in 3D-collagen only biomimetic platform system; format: cell-based, human; conditions: 0.6% (w/v) collagen, 200,000 MDA-MB231 cells labelled with mCherry; 1-10 μM doxorubicin; FIG. 19B
Protocol: Images were analyzed by confocal microscopy.

MDA-MB468 cancer cells = assay: Doxorubicin response in 3D-breast component versus 3D-collagen only biomimetic platform system; format: cell-based, human; conditions: doxorubicin 0-10 μM, FIG. 20C
adipocytes = assay: Doxorubicin permeability of 3D-breast component biomimetic platform without cancer cells (BM only); format: cell-based, human; conditions: 0.6% (w/v) collagen, 15% v/v adipocytes, stromal cells, breast organoids, no cancer cells; increasing doxorubicin concentrations 0-10 μM; FIG. 19C
[3] = 0.6% (w/v) collagen, 15% v/v adipocytes, stromal cells, breast organoids, 200,000 MDA-MB231 cells, 1-10 μM doxorubicin, FIG. 19A

doxorubicin uptake (intrinsic fluorescence signal) (MDA-MB231 cancer cells [1]; [3]): uptake was increased | permeability of the biomimetic platform and adipocytes to doxorubicin (signal) (adipocytes): increased signal
Structure (SMILES): COc1cccc2c1C(=O)c1c(O)c3c(c(O)c1C2=O)C[C@@](O)(C(=O)CO)C[C@@H]3O[C@H]1C[C@H](N)[C@H](O)[C@H](C)O1 [doxorubicin]
absolute number of cells (mCherry and DAPI signals) (MDA-MB231 cancer cells [1]; [3]): decrease in the absolute number of cells | sensitivity of cancer cells to doxorubicin, 3D-breast component versus 3D-collagen only platform (MDA-MB231 cancer cells [1]; MDA-MB231, doxorubicin 0-10 μM, FIG. 20A-20B): decreased sensitivity | sensitivity of cancer cells to doxorubicin, 3D-breast component versus 3D-collagen only platform (HS578T cancer cells): decreased sensitivity | absolute number of cells (mCherry and DAPI signals) (MDA-MB231 cancer cells [2]): decrease in the absolute number of cells | sensitivity of cancer cells to doxorubicin, 3D-breast component versus 3D-collagen only platform (MDA-MB468 cancer cells): decreased sensitivity
